Laboratory results published in ChEMBL document CHEMBL1201862, “PubChem BioAssay data set” (2004).
Activity calls are given as the source filed them.

Experiments:
[1] = ARNT/TACC3 interaction disruptors, potency, confirmation, biochemical, AlphaScreen, cherry-picked samples (AID 651703); assay type: functional, Homo sapiens;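 also: His-tagged ARNT PAS-B domain paired with GST-TACC3 E629A dimer coactivator fragment; potency of inhibitors that break up the complex and lower AlphaScreen signal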
[2] = target: Aryl hydrocarbon receptor (Homo sapiens, UniProt P35869); details: Potency;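 also: confirmatory quantitative high-throughput screen measuring activation of the AhR signaling pathway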
Sequence of Aryl hydrocarbon receptor (P35869 whole entry): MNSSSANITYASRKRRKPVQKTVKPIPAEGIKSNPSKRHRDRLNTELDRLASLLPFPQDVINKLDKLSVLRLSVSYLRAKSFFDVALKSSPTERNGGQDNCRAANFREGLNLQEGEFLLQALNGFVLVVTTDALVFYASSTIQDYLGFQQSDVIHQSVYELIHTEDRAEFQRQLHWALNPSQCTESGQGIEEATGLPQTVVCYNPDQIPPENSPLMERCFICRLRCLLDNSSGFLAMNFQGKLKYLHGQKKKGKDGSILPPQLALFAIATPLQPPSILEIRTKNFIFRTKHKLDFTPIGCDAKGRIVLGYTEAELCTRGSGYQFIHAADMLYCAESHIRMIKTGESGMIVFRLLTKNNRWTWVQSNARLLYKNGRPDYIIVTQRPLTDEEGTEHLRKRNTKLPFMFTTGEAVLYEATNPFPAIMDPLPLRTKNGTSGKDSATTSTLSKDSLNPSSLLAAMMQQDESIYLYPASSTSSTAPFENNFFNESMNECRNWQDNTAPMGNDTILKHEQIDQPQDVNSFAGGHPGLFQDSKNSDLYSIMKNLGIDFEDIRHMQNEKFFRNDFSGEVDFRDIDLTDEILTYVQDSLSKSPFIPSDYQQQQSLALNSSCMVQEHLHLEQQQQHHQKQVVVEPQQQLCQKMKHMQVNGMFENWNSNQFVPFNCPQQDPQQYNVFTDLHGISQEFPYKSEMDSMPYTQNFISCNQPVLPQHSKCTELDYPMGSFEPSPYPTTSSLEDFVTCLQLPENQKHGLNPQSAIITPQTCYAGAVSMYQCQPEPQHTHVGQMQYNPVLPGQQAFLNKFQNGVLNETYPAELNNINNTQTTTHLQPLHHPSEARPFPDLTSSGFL

[3] = target: T1, Interleukin-8 (Homo sapiens, UniProt P10145); test: Dose Response confirmation of uHTS small molecule hits for cystic fibrosis induced NFkb Inhibitors in a PAF-induced IL8 counterscreen.; assay type: functional; details: read-out: IC50_Mean
T1 sequence (P10145 whole entry): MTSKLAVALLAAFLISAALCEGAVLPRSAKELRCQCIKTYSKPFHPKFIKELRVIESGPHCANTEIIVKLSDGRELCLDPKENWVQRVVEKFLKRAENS

[4] = target: T1, Interleukin-8; test: Dose Response confirmation of uHTS small molecule hits for cystic fibrosis induced NFkb Inhibitors in a TNFa-induced IL8 counterscreen.; assay type: functional; details: read-out: IC50_Mean
[5] = target: DNA dC->dU-editing enzyme APOBEC-3G (Homo sapiens, UniProt Q9HC16); test: APOBEC3G deaminase inhibitors, SAR follow-up, biochemical, fluorescence, single-stranded DNA substrate (AID 602136); assay type: functional; details: read-out: IC50_Mean
Sequence of DNA dC->dU-editing enzyme APOBEC-3G (Q9HC16 whole entry): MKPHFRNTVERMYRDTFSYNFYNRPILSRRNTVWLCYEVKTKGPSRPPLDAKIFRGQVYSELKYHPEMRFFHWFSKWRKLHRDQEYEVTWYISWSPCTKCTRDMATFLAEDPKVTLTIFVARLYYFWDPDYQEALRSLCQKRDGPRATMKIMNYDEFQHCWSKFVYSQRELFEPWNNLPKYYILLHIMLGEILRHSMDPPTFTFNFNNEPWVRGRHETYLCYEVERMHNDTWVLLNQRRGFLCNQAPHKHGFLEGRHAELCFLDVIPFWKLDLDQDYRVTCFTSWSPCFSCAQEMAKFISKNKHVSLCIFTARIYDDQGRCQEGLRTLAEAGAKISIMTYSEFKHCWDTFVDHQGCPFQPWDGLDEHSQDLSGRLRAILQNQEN

[6] = target: DNA dC->dU-editing enzyme APOBEC-3A (Homo sapiens, UniProt P31941); test: SAR analysis of small molecule inhibitors of APOBEC3A DNA Deaminase via a fluorescence-based single-stranded DNA deaminase assay.; assay type: functional; details: read-out: IC50_Mean
Sequence of DNA dC->dU-editing enzyme APOBEC-3A (P31941 whole entry): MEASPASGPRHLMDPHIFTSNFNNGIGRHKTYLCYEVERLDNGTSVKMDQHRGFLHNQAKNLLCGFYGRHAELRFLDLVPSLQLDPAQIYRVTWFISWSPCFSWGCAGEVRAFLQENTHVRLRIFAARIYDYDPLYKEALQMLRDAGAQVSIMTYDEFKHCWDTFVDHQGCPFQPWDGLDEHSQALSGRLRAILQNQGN

[7] = target: T2, Caspase-3 (Homo sapiens, UniProt P42574); test: caspase-3 inhibitors as off-family protease, SAR follow-up, selectivity assay for SENP protease inhibitor project, biochemical, luminescence, set 2 (AID 588599); assay type: functional
T2 sequence (P42574 whole entry): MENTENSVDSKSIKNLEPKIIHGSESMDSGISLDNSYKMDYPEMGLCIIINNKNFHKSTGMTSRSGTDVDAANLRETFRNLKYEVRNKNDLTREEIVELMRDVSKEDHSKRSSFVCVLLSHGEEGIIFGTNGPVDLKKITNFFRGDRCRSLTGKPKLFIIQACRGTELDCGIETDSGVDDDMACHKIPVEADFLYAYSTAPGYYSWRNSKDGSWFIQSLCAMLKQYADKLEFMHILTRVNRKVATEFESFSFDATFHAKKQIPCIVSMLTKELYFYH

[8] = target: T3, Sentrin-specific protease 6 (Homo sapiens, UniProt Q9GZR1); test: SENP6 protease inhibitors, SAR follow-up, biochemical, luminescence, set 2 (AID 588598); assay type: functional
T3 sequence (Q9GZR1 whole entry): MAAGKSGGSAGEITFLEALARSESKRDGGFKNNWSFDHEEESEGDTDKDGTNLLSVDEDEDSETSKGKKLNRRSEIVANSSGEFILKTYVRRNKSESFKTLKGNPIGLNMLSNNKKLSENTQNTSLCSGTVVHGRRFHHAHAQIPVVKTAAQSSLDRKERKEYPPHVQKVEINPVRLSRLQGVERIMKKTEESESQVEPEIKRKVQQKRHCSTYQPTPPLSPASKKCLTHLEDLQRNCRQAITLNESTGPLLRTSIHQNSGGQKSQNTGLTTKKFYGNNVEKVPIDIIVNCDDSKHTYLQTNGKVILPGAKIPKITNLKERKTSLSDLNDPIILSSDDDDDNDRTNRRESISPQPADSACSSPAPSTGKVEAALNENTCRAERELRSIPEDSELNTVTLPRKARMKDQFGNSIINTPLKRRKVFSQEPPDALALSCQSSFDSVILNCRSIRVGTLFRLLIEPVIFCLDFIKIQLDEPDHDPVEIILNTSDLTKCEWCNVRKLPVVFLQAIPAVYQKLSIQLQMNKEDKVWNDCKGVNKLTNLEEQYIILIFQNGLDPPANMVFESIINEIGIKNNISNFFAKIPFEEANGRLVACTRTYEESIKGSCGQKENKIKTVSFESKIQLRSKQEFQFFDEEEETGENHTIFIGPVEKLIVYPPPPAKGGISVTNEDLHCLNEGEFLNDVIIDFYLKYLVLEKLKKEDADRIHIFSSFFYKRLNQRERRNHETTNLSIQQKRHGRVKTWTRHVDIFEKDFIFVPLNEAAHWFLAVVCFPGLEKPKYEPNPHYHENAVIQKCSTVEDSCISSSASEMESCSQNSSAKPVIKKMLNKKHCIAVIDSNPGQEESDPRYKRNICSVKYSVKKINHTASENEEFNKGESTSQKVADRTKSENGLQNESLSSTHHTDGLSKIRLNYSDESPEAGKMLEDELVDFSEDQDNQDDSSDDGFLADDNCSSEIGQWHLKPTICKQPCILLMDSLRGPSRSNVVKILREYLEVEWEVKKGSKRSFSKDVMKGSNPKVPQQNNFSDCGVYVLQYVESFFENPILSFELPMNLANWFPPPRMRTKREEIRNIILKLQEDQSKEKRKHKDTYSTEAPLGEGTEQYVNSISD

[9] = target: T4, Sentrin-specific protease 8 (Homo sapiens, UniProt Q96LD8); test: SENP8 protease inhibitors, SAR follow-up, biochemical, luminescence (AID 504501); assay type: functional
T4 sequence (Q96LD8 whole entry): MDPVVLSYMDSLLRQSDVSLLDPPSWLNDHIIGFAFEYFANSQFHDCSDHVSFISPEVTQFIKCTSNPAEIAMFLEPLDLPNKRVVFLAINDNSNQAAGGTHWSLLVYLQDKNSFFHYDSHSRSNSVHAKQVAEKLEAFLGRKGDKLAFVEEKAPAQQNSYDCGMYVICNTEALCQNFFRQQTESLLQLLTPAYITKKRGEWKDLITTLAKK

[10] = target: T4, Sentrin-specific protease 8; test: SENP8 protease inhibitors, SAR follow-up, biochemical, luminescence, set 2 (AID 588601); assay type: functional
[11] = target: T3, Sentrin-specific protease 6; test: SAR Analysis of small molecule inhibitors of Sentrin-specific protease 6 (SENP6) using a Luminescent assay. [Related pubchem assays (depositor defined):AID2582, AID2599]; assay type: functional
[12] = target: T5, Sentrin-specific protease 7 (Homo sapiens, UniProt Q9BQF6); test: SENP7 protease inhibitors, SAR follow-up, biochemical, luminescence (AID 504497); assay type: functional
T5 sequence (Q9BQF6 whole entry): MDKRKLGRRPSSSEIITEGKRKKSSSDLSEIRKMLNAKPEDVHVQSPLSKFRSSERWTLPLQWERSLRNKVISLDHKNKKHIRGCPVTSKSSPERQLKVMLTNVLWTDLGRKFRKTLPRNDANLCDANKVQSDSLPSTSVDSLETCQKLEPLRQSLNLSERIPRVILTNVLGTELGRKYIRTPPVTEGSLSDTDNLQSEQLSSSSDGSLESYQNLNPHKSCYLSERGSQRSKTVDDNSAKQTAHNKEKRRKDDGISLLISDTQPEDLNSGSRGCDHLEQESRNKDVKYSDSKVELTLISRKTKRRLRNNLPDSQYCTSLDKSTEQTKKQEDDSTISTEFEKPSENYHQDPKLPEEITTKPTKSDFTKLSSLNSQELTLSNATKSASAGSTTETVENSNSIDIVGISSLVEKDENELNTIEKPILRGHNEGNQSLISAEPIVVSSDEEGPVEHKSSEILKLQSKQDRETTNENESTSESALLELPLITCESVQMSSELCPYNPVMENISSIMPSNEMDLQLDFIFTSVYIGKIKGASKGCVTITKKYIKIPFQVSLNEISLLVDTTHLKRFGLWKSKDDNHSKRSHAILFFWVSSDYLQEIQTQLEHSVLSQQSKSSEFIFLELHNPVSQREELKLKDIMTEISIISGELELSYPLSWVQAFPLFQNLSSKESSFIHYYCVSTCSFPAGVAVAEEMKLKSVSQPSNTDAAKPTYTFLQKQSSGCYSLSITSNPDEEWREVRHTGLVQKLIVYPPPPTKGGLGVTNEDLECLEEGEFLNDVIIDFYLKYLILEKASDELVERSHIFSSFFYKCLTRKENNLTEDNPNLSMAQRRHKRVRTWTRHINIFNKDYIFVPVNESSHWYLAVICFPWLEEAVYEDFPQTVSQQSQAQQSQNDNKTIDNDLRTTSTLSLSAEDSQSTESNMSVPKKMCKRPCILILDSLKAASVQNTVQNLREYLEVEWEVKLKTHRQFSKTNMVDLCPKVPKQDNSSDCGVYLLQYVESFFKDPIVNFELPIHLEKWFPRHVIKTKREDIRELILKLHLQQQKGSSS

[13] = target: T2, Caspase-3; test: SAR Analysis of small molecule inhibitors of Sentrin-specific proteases (SENPs) using a Caspase-3 Selectivity assay. [Related pubchem assays (depositor defined):AID2540, AID2599, AID434973, AID489001]; assay type: functional
[14] = target: T5, Sentrin-specific protease 7; test: SENP7 protease inhibitors, SAR follow-up, biochemical, luminescence, set 2 (AID 588600); assay type: functional
[15] = target: Adenosylmethionine-8-amino-7-oxononanoate aminotransferase (Mycobacterium tuberculosis, UniProt P9WQ81); test: Mycobacterium tuberculosis BioA enzyme inhibitor Measured in Biochemical System Using Plate Reader - 2163-02_Inhibitor_Dose_CherryPick_Activity.; assay type: functional, Mycobacterium tuberculosis UT205
Sequence of Adenosylmethionine-8-amino-7-oxononanoate aminotransferase (P9WQ81 whole entry): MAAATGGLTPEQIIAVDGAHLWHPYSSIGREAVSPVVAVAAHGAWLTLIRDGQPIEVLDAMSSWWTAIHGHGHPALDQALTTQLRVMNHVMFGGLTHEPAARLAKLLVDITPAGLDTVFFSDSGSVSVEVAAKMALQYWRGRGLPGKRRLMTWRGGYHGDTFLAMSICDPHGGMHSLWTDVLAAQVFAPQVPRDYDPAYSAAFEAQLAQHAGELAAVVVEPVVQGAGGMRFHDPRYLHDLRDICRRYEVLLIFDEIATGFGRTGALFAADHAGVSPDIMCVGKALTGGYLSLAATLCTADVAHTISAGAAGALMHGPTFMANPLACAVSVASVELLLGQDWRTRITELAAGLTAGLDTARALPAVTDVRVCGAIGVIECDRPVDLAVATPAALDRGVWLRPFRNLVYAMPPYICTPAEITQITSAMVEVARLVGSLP

[16] = target: Genome polyprotein (dengue virus type 2, UniProt P29990); test: Dengue-2 NS5 methyltransferase inhibitors, primary screen, biochemical, confirmation dose response (AID 588689); assay type: functional
Sequence of Genome polyprotein (P29990 2492-3391 limits assumed): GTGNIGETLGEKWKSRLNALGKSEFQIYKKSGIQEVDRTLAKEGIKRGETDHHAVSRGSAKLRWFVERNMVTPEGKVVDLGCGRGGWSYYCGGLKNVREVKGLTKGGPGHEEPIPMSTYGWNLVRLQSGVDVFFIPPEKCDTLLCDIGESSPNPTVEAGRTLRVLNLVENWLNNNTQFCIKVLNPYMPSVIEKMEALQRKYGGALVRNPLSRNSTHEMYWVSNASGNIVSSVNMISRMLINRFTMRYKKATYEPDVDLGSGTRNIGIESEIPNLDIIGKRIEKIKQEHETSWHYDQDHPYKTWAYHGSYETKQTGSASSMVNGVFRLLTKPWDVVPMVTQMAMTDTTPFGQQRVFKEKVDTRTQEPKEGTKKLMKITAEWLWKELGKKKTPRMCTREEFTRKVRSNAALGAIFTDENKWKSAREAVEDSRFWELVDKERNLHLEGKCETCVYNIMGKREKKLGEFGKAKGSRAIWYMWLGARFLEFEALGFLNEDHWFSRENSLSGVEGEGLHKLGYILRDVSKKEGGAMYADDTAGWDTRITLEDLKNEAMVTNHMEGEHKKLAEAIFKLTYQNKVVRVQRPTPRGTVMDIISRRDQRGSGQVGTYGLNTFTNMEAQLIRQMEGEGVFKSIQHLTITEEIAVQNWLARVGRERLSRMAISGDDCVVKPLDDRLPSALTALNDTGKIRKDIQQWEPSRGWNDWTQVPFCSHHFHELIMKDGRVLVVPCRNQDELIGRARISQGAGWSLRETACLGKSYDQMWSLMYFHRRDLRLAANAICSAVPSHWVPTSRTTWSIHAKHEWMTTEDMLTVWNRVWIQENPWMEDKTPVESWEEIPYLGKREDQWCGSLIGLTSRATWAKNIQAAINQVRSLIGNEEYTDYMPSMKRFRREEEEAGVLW

## C/C(=N\NC(=O)c1ccncc1)C12CC3CC(CC(C3)C1)C2
[1]
  AC50: 88.3 µM (active)

## CC(C)OC(=O)Nc1cccc(Cl)c1 [CHLORPROPHAM]
[2]
  AC50: 63.1 µM (inconclusive)

## C=CCn1c(Oc2ccccc2F)nc2c1c(=O)n(C)c(=O)n2C
[3]
  IC50: 51.1 µM (inactive)
[4]
  IC50: > 79 µM (inactive)

## COc1ccc(-c2nnc(SCc3nc4ccsc4c(=O)[nH]3)[nH]2)cc1
[5]
  IC50: 66.4 µM (inactive)
[6]
  IC50: > 99 µM (inactive)

## CCCCc1ccc2nc(NC(=O)c3ccc(Br)o3)sc2c1
[7]
  IC50: 5.94 µM (active)
[8]
  IC50: 6.66 µM (active)
[9]
  IC50: > 99 µM (inactive)
[10]
  IC50: 5.7 µM (active)
[11]
  IC50: > 99 µM (inactive)
[12]
  IC50: 3.8 µM (active)
[13]
  IC50: 11 µM (active)
[14]
  IC50: 8.4 µM (active)

## O=C(O)CN1C(=O)/C(=C\c2cc(Br)ccc2OCc2ccc([N+](=O)[O-])cc2)SC1=S
[15]
  AC50: 11.7 µM (active)
[16]
  IC50: 30.3 µM (active)

## COc1cccc(-n2nnc3c(N4CCN(C(=O)C(=O)c5c(C)[nH]c6ccccc56)CC4)ncnc32)c1
[7]
  IC50: > 99 µM (inactive)
[8]
  IC50: > 99 µM (inactive)
[10]
  IC50: > 99 µM (inactive)
[14]
  IC50: > 99 µM (inactive)
